This passage reports EC50 results from publication PMC3223156, “Designer Lipid-Like Peptides: A Class of Detergents for Studying Functional Olfactory Receptors Using Commercial Cell-Free Systems” (PLoS ONE, 2011).

Broadly, the EC50 is the concentration giving half of the maximal effect.

Common to all, as to experiment: microscale thermophoresis, native tryptophan fluorescence, Hill fit n = […]
What all share (assay type): binding
Common to all, as to conditions: read-out: Measured EC50
For orientation: Microscale thermophoresis detects binding through changes in fluorescence in a small temperature gradient.

One experiment deals with T1, mOR103-15 (Mus musculus, UniProt Q9QWU6).
T1 construct: gene Or6a2; full length; C-terminal GSSG linker plus rho1D4 tag (TETSQVAPA); E. coli cell-free expression in Brij-35, purified in FC-14
T1 sequence (Q9QWU6 1-327): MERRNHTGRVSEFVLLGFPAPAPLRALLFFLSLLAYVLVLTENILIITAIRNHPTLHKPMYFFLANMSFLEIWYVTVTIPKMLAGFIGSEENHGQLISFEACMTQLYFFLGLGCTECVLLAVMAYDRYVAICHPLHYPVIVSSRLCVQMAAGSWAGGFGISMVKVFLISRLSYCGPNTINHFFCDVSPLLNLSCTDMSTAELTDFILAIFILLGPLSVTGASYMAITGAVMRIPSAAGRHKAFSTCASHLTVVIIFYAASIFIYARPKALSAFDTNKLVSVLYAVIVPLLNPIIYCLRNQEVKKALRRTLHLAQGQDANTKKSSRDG

For the next experiment, the target named is T2, mOR174-9 (Mus musculus, UniProt Q920P2).
T2 construct: gene Or5d18; full length; C-terminal GSSG linker plus rho1D4 tag (TETSQVAPA); E. coli cell-free expression in Brij-35, purified in FC-14
T2 sequence (Q920P2 1-313): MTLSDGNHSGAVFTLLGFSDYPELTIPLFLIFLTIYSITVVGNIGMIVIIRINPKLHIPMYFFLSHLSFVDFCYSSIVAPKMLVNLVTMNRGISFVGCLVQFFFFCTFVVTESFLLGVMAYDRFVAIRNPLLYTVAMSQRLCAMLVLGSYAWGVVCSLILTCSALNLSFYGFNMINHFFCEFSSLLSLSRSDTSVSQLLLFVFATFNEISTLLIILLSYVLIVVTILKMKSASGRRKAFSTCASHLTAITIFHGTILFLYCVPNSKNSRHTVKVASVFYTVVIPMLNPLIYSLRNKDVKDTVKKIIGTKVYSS

The target of a further experiment is T3, mOR174-4 (Mus musculus, UniProt Q920P1).
T3 construct: gene Or5d47; full length; C-terminal GSSG linker plus rho1D4 tag (TETSQVAPA); E. coli cell-free expression in Brij-35, purified in FC-14
T3 sequence (Q920P1 1-318): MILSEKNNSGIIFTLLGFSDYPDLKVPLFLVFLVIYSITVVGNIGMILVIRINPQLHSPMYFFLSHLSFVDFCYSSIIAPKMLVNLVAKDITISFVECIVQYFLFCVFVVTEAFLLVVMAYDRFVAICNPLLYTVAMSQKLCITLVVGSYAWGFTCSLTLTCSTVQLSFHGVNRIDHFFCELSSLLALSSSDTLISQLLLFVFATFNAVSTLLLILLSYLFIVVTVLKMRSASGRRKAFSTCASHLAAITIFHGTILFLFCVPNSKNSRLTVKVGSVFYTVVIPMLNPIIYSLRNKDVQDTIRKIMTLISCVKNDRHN

`CCCCCCC=O` [Heptanal]: at mOR103-15, the EC50 was determined as 2000 ± 700 nM.
Consider `CCOc1cc(C=O)ccc1O` [Ethyl Vanillin], for which the EC50 is 4.9 ± 3.5 µM on mOR174-9 and 7 ± 2 µM at mOR174-4.
